Laboratory results published in publication PMC6045597, “Probiotics in human gut microbiota can degrade host glycosaminoglycans” (Scientific Reports, 2018).

Columns and labels:
Assay in all cases: coupled NADH oxidation at […] nm
Format in all cases: biochemical
KduI = target: T1, KduI (Lacticaseibacillus rhamnosus, UniProt C2JUP1); details: isomerase coupled with reductase DhuD or KduD; DHU prepared from unsaturated chondroitin disaccharide (6-sulfate) with UGL
T1 construct: recombinant, expressed in E. coli, purified to homogeneity; encoded in GAG genetic cluster
T1 sequence (C2JUP1 1-281): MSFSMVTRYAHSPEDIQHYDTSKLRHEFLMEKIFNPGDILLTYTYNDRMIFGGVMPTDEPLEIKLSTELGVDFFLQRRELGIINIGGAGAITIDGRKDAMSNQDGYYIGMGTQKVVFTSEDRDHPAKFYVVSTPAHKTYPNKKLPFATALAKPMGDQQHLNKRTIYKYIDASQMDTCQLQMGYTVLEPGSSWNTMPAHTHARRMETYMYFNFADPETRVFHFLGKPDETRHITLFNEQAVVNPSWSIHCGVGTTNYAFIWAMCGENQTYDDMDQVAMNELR

DhuI = target: T2, DhuI (Streptococcus agalactiae, UniProt Q8DXE6); details: reference isomerase, coupled with reductase DhuD or KduD; DHU prepared with UGL
T2 construct: gene SAG1905; purified protein
T2 sequence (Q8DXE6 1-212): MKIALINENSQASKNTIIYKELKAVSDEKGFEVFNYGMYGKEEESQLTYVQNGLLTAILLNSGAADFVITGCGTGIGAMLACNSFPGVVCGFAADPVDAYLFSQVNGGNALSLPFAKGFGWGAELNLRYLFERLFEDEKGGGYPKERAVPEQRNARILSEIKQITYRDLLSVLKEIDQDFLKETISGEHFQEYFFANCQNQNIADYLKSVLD

KduD = target: T3, KduD (Lacticaseibacillus rhamnosus, UniProt A0A0E3CKR8); details: DK-II formed in situ from DHU by KduI or DhuI
T3 construct: recombinant, expressed in E. coli, purified to homogeneity; encoded in GAG genetic cluster
T3 sequence (A0A0E3CKR8 23-274): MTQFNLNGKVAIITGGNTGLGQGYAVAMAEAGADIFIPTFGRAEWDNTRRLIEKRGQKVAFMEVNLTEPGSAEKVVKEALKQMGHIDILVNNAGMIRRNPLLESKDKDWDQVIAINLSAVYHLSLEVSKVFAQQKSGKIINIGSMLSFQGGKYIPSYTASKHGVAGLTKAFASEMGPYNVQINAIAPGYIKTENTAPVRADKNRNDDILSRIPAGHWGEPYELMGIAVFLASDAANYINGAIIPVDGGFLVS

DhuD = target: T4, DhuD (Streptococcus agalactiae, UniProt Q8E370); details: reference reductase, DK-II formed in situ from DHU by DhuI or KduI
T4 construct: gene gbs1891; purified protein
T4 sequence (Q8E370 1-270): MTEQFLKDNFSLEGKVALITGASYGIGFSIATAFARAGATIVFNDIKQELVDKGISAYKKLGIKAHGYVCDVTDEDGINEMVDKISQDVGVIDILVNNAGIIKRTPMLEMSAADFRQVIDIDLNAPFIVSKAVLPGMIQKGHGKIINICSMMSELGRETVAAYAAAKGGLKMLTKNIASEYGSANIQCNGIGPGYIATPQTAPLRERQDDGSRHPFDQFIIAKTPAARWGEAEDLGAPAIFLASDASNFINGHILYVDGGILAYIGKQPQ

Structure (SMILES)	coupled NADH oxidation at 340 nm (KduI)	coupled NADH oxidation at 340 nm (DhuI)	coupled NADH oxidation at 340 nm (KduD)	coupled NADH oxidation at 340 nm (DhuD)
O=C[C@H](O)[C@@H](O)CC(=O)C(=O)O [DHU, 4-deoxy-l-threo-5-hexosulose-uronic acid]	KduI catalyses the isomerase reaction from DHU to DK-II	successive reaction of isomerase (DhuI or KduI) and reductase (DhuD or KduD)	–	–
O=C(O)C(=O)C[C@H](O)C(=O)CO [DK-II, 3-deoxy-d-glycero-2,5-hexodiulosonic acid]	–	–	DK-II, which is further reduced to KDG by NADH-dependent reductase KduD	successive reaction of isomerase (DhuI or KduI) and reductase (DhuD or KduD)
NC(=O)C1=CN([C@@H]2O[C@H](COP(=O)(O)OP(=O)(O)OC[C@H]3O[C@@H](n4cnc5c(N)ncnc54)[C@H](O)[C@@H]3O)[C@@H](O)[C@H]2O)C=CC1 [NADH]	–	–	further reduced to KDG by NADH-dependent reductase KduD	–
